Measurements from patent US10183940B2, “Aryl and heteroaryl-fused tetrahydro-1,4-oxazepine amides as somatostatin receptor subtype 4 (SSTR4) agonists” (Boehringer Ingelheim International GmbH, priority 2014, dated 2019).

Tests used:
[1] = target: human Somatostatin 4 receptor (SSTR4) (Homo sapiens (Human), UniProt P31391); experiment: cAMP assay with human Somatostatin 4 receptor; assay type: cell-based; details: hSSTR4 expressing H4 cells, inhibition of Forskolin-stimulated cAMP; read-out: SSTR4 agonism EC50
Experimental: Method description for cAMP assay with human Somatostatin 4 receptor.
The activation of the SSTR4 receptor (Gi coupled) causes an inhibition of intracellular cAMP after stimulation with Forskolin, which can be quantifiable by use of a suitable assay Kit and an adequate plate reader. This technique is used to characterize pharmacological effects of the SSTR4 receptor agonists by use of hSSTR4 expressing H4 cells.
Compounds are dissolved and diluted in DMSO. The final test solution contains […]. The cAMP standard (Lance cAMP 384 Kit; PerkinElmer, Cat #AD0264) is prepared in assay buffer (HBSS with 0.1% BSA, 5 mM HEPES, […], pH 7.4) containing 1% DMSO and the cAMP standard curve is included at least on one plate. Cells are centrifuged and suspended in assay buffer (incl. 1:100 diluted Alexa antibody).
For the assay 5 μl of a cell suspension (approximately 5000 cells/well)—incl. Alexa antibody (diluted 1:100) are added into a 384 well MTP microtitre plate excepting one row or column (depending on the plate layout), which is reserved for the standard curve. Then 2 μl of compound sample is added as concentration response curve (e.g. 1e-5 M to 6e-10 M), usually in triplicates. Each assay contains incubations with vehicle controls instead of compound as controls for non-inhibited cAMP generation (100% CTL; ‘high values’) and incubations with 1 μM Somatosatin as controls for full inhibition and background (0% CTL; ‘low values’). After approximately 10-15 min incubation time 3 μl Forskolin (dissolved in DMSO, final conc. 15 μM) is added. Then the plates are shaken briefly and incubated for 60 min at room temperature. After 60 min 10 μl of the detection mix is added into all wells followed by an additional incubation period of 1 h. The plates are read in a suitable plate reader.
The analysis of the data is based on the “ratio” of the time-resolved fluorescence measurements of donor and acceptor fluorophore (Ex: 320 nm; Em1: 665 nm; Em2: 615 nm; ratio 665/615). From this ratio, cAMP concentrations are calculated from standard curve and the EC50 is estimated by least square curve fit program.

[2] = Metabolic stability in human liver microsomes; assay type: in vitro ADME; details: pooled human liver microsomes, 37° C., 1 μM test compound, NADPH; for half-life at 1 μM: pH 7.6, read-out: Half-life t1/2
Experimental: The metabolic stability of the compounds according to the invention may be investigated as follows:
The metabolic degradation of the test compound is assayed at 37° C. with pooled human liver microsomes. The final incubation volume of 100 μl per time point contains TRIS buffer pH 7.6 at room temperature (0.1 M), magnesium chloride (5 mM), microsomal protein (1 mg/mL) and the test compound at a final concentration of 1 μM. Following a short preincubation period at 37° C., the reactions are initiated by addition of beta-nicotinamide adenine dinucleotide phosphate, reduced form (NADPH, 1 mM), and terminated by transferring an aliquot into solvent after different time points. After centrifugation (10000 g, 5 min), an aliquot of the supernatant is assayed by LC-MS/MS for the amount of parent compound. The half-life is determined by the slope of the semi-logarithmic plot of the concentration-time profile.

Chain of human Somatostatin 4 receptor (SSTR4) (P31391 whole entry): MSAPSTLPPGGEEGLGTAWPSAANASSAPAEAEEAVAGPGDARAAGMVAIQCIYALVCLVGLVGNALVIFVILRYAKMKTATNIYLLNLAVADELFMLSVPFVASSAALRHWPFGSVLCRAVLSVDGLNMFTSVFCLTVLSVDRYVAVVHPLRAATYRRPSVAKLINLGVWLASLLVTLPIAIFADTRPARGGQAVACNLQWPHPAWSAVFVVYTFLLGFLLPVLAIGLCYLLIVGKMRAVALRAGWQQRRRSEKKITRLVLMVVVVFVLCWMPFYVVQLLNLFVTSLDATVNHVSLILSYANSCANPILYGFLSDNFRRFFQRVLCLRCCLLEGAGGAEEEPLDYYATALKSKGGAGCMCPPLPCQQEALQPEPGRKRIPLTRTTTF

Structure (SMILES)	EC50 [1]	half-life at 1 μM [2]	Half-life t1/2 [2]
Cc1cccn2c([C@H](C)NC(=O)c3cccc4c3OCCNC4)ncc12 [Example 60]	94.4 nM		
Cc1cccc2c(C(C)(C)NC(=O)c3cccc4c3OCCNC4)ncnc12 [Example 45]	9.2 nM	1.83 h	
Cc1nc(C(C)(C)NC(=O)c2cccc3c2OCCNC3)n2cccc(F)c12 [Example 50]	2 nM	1.38 h	
Cc1cccc2c(C(C)(C)NC(=O)c3cccc4c3OCCNC4)cnn12 [Example 24]	4.4 nM	1.83 h	
CC(C)(NC(=O)c1cccc2c1OCCNC2)c1noc2c(Cl)cccc12 [Example 38]	2.9 nM	0.583 h	
CC(NC(=O)c1cccc2c1OCCNC2)c1nc2ccccc2[nH]1 (stereo not drawn) [Example 2]	302 nM		
Cc1cccn2c(C(C)(C)NC(=O)c3cncc4c3OCCNC4)ncc12 [Example 79]	31.3 nM	> 2.17 h	
Cc1cccn2c(C(C)(C)NC(=O)c3nccc4c3OCCNC4)nc(C3CC3)c12 [Example 76]	145 nM		
Cc1cccn2c(C(C)(CC(C)C)NC(=O)c3cccc4c3OCCNC4)ncc12 (stereo not drawn) [Example 56]	1980 nM		
Cc1cccn2c(C(C)(C)NC(=O)c3cccc4c3OCCNC4)ccc12 [Example 71]	2.9 nM	0.183 h	
Cc1cccc2c(C(C)(C)NC(=O)c3cccc4c3OCCNC4)noc12 [Example 32]	2.8 nM	0.9 h	
Cc1cccn2c(C3(NC(=O)c4cccc5c4OCCNC5)CC3)ncc12 [Example 49]	1.5 nM	1.55 h	
Cn1nc(C(C)(C)NC(=O)c2cncc3c2OCCNC3)c2ccccc21 [Example 21]	35.5 nM		
CC(C)(NC(=O)c1cccc2c1OCCNC2)c1ncnc2ccccc12 [Example 46]	9.2 nM	> 2.17 h	
Cc1cccn2c(C(C)(C)NC(=O)c3cccc4c3OCCNC4)cnc12 [Example 70]	11.3 nM	> 2.17 h	
CC(C)(NC(=O)c1cccc2c1OCCNC2)c1noc2c(F)cccc12 [Example 34]	18.2 nM		
O=C(NC1(c2nc3ccc(Cl)cc3[nH]2)CCOC1)c1cccc2c1OCCNC2 (stereo not drawn) [Example 5]	750 nM		
COc1cccn2c(C(C)(C)NC(=O)c3cccc4c3OCCNC4)ncc12 [Example 51]	4.3 nM		2.17 h
Cc1cccn2c(C3(NC(=O)c4nccc5c4OCCNC5)CC3)ncc12 [Example 73]	39.3 nM		
CC(C)(NC(=O)c1cccc2c1OCCNC2)c1n[nH]c2c(Cl)cccc12 [Example 44]	1.3 nM	> 2.17 h	
Cc1cccn2c(C(C)(C)NC(=O)c3ccnc4c3OCCNC4)ncc12 [Example 78]	33.6 nM	> 2.17 h	
CC(C)(NC(=O)c1cccc2c1OCCNC2)c1cccc2cccnc12 [Example 10]	42.1 nM		
Cc1nc(C(C)(C)NC(=O)c2cccc3c2OCCNC3)c2cccc(C)c2n1 [Example 65]	21.4 nM		
CC(C)(NC(=O)c1cncc2c1OCCNC2)c1noc2c(F)cccc12 [Example 37]	1600 nM		
CC(C)(NC(=O)c1cccc2c1OCCNC2)c1cccc2cnccc12 [Example 11]	423 nM		
Cc1cc2ccccc2c(C(C)(C)NC(=O)c2ccnc3c2OCCNC3)n1 [Example 30]	19 nM		
CC(C)(NC(=O)c1cccc2c1OCCNC2)c1nc(C(F)(F)F)c2c(F)cccn12 [Example 63]	32.3 nM		
Cc1cccnc1OCC(C)(C)NC(=O)c1cccc2c1OCCNC2 [Example 15]	28.1 nM		

The remaining compounds from weak to strong by EC50 [1], led by results:

EC50 [1]	half-life at 1 μM [2]	Half-life t1/2 [2]	Structure (SMILES)
2480 nM			Cc1cccn2c(C3(NC(=O)c4cccc5c4OCCNC5)CCOCC3)ncc12 [Example 58]
380 nM			CC(C)(NC(=O)c1ccnc2c1OCCNC2)c1noc2c(F)cccc12 [Example 36]
354 nM			Cc1cccn2c(C3(NC(=O)c4cccc5c4OCCNC5)CCOC3)ncc12 (stereo not drawn) [Example 57]
350 nM			CC(C)(NC(=O)c1nccc2c1OCCNC2)c1noc2c(F)cccc12 [Example 35]
342 nM			O=C(NC1(c2nc3ccc(Cl)cc3[nH]2)CC1)c1cccc2c1OCCNC2 [Example 4]
134 nM			Cc1cccn2c(C(C)(NC(=O)c3cccc4c3OCCNC4)C3CC3)ncc12 (stereo not drawn) [Example 55]
132 nM			CC(C)(COc1cnccc1C(F)(F)F)NC(=O)c1cccc2c1OCCNC2 [Example 14]
106 nM			COc1cccn2c(C(C)(C)NC(=O)c3nccc4c3OCCNC4)ncc12 [Example 74]
98.4 nM			CC(C)(NC(=O)c1cccc2c1OCCNC2)c1cccc2ncccc12 [Example 12]
75 nM			Cc1nc(C(C)(C)NC(=O)c2cccc3c2OCCNC3)c2cccc(F)c2n1 [Example 67]
58.1 nM			Cc1cc2cccnc2c(C(C)(C)NC(=O)c2cccc3c2OCCNC3)n1 [Example 1]
45.1 nM			CC(C)(NC(=O)c1cccc2c1OCCNC2)c1nc2ccc(Cl)cc2[nH]1 [Example 3]
37.9 nM			Cc1cccn2c(C(C)(C)NC(=O)c3cccc4c3OCCNC4)nnc12 [Example 68]
37 nM			Cc1cc2ccccc2c(C(C)(C)NC(=O)c2cncc3c2OCCNC3)n1 [Example 31]
33 nM			CC(C)(NC(=O)c1cccc2c1OCCNC2)c1ccc(F)cc1 [Example 16]
30.5 nM			CC(C)(NC(=O)c1cccc2c1OCCNC2)c1ncc2c(OC(F)(F)F)cccn12 [Example 59]

EC50 [1]	half-life at 1 μM [2]	Half-life t1/2 [2]	Structure (SMILES)
30 nM			CC(C)(NC(=O)c1cccc2c1OCCNC2)c1ncnc2c(F)cccc12 [Example 66]
22.6 nM			Cc1cccn2c(C(C)(C)NC(=O)c3nccc4c3OCCNC4)ccc12 [Example 77]
19.9 nM	0.45 h		Cc1cc2ccccc2c(C(C)(C)NC(=O)c2nccc3c2OCCNC3)n1 [Example 29]
17.6 nM			Cc1nc2ccccn2c1C(C)(C)NC(=O)c1cccc2c1OCCNC2 [Example 69]
15.2 nM			Cc1cccn2c(C3(NC(=O)c4cccc5c4OCCNC5)CCC3)ncc12 [Example 54]
14.3 nM	> 2.17 h		CC(C)(NC(=O)c1cccc2c1OCCNC2)c1ncc2ccccn12.Cl [Example 13]
8.7 nM			Cc1cc(F)cn2c(C(C)(C)NC(=O)c3cccc4c3OCCNC4)ncc12 [Example 52]
8.2 nM	0.233 h		CC(C)(NC(=O)c1cccc2c1OCCNC2)c1ccc(Cl)cc1.Cl [Example 17]
8 nM	0.7 h		Cn1nc(C(C)(C)NC(=O)c2cccc3c2OCCNC3)c2c(F)cccc21 [Example 22]
6.8 nM			Cn1nc(C(C)(C)NC(=O)c2cccc3c2OCCNC3)c2cccc(C(F)(F)F)c21 [Example 25]
6.3 nM	0.75 h		CC(C)(NC(=O)c1cccc2c1OCCNC2)c1nc(C2CC2)c2c(F)cccn12 [Example 61]
2.8 nM	0.317 h		C[C@H](NC(=O)c1cccc2c1OCCNC2)c1cccc2ccccc12.Cl [Example 9]
2.2 nM	1.45 h		CC(C)(NC(=O)c1cccc2c1OCCNC2)c1n[nH]c2c(F)cccc12 [Example 43]
2.2 nM	0.517 h		Cc1cccc2c(C(C)(C)NC(=O)c3cccc4c3OCCNC4)nn(C)c12 [Example 40]
0.9 nM	1.12 h		Cn1nc(C(C)(C)NC(=O)c2cccc3c2OCCNC3)c2ccc(F)cc21 [Example 23]
